According to patent publication US20240423952A1, “COMPOSITIONS AND METHODS FOR TREATING CONGENITAL DISORDERS” (Ibagen Pharmaceuticals, Inc., priority 2021, published 2024):
“And” between values parts separate entries of the source, which are not always exact repeats. Identical values can stand only once. Counter-ions that a name gives are not always drawn.

Tests used:
[1] = test system: EG9152 GOF worms (C. elegans NALCN(gf) model); assay: Screen of putative NALCN antagonists by motor behavior, GOF worms on compound agar; format: in vivo
Method: (§1) Compounds were dissolved in the vehicle in which they were the most soluble (DMSO or molecular grade water). […] Microwave to dissolve (note: this will boil over rapidly). The screen is performed in a 24-well flat-bottom plate. […] Proceed to next step quickly. […] Immediately begin mixing with pipette tip until the compound dissolves (at this point the mixture should be clear). Fill the remainder of the plate (I usually prepare duplicate wells for each compound) and cover with aluminum foil to protect the compounds from light. Leave at room temperature overnight to allow the plate to dry before screening. […] Prepare at least 4 small plates for each line. […] Pick a line to start with. […] Start timing as soon as a well has been filled. […] Touch the tail of each worm gently with a platinum wire to promote motion. Record any observations. (I like to record the proportion of worms that retain the original phenotype, the proportion that show full body paralysis/death, and the proportion that show paralysis of the neck only).

[2] = test system: N2 non-transgenic worms; assay: Screen of putative NALCN antagonists by motor behavior, N2 control worms on compound agar; format: in vivo, C. elegans
Method: as §1

[3] = test system: Outward K+ currents; assay: Electrophysiology tests, whole-cell recording of E16 embryonic cortical neurons; format: cell-based; settings: mouse E16 cortical neurons, ramp −60~+80 mV, quantified at +80 mV (figure legends)
Method: Briefly, the cerebral cortex was isolated from embryos of E16 pregnant mouse (C57/BL6) and cut into small cubes. After being digested in 0.05% Trypsin for 25-30 mins in 37° C. in incubator, the Trypsin was neutralized with 1-2 ml DMEM (containing 10% FBS. The pellets were then triturated with a pipette for 10-15 time and then diluted into plating media (DMEM with 10% FBS). The cell suspension was sieved through a […] nylon filter and plated onto cover slips coated with poly-D-lysine (PDL) in 35 mm dishes at density of 2×10^5 cells per dish. After culturing for 2 hrs in incubator, the plating media was replaced with the following media: Neurobasal media supplemented with 2% B27. Neurobasal media was changed every 3 days until the experiment start.
Membrane potentials of neurons were recorded in whole-cell configuration at 20° C.-22° C. in a mouse E16 embryonic cortical neuron preparation. The pipette solution contained (in mM): K-Gluconate 115; KCl 25; CaCl2) 0.1; MgCl2 5; BAPTA 1; HEPES 10; Na2ATP 5; Na2GTP 0.5; cAMP 0.5; cGMP 0.5, pH 7.2 with KOH, 320 mOsm. The bath solution consisted of (in mM): NaCl 150; KCl 5; CaCl2) 5; MgCl2 1; glucose 10; sucrose 5; HEPES 15, pH 7.3 with NaOH, 330 mOsm. For zero and 15 Na+ solution, extracellular Na+ ([Na+]o) was replaced with N-methyl-D-glucamine (NMDG+) or Tris+. RMP was recorded at 0 pA. […]

CCOC(=O)c1ccc(N)cc1 [Benzocaine]
proportion of worms: rescue ([1]; 2.4 mM, 20 min, Trials 3-4): 20 min: 40% and 20 min: 33%
proportion of worms: rescue ([1]; 2.4 mM, 40 min, Trials 3-4): 40 min: 8% and 40 min: 11%
Rescue worms still move fairly ... ([1]; 4.71 mM, 30 min, Trial 1): quickly.
amplitude of body bends overall ([1]; 4.71 mM, 30 min, Trial 1): Reduced
proportion of worms: rescue ([1]; 4.71 mM, 30 min, Trials 1-2): 30 min: 38% and 30 min: 8%
proportion of worms: LOF ([1]; 4.71 mM, 1 hr, Trials 1-2): 1 hr: 100%
paralysis of neck and reduced body bend amplitude but not as obvious a phenotype as Verapamil ([1]; remark for the trials at 4.71 mM and 2.4 mM): Show
proportion of worms: N2 ([2]; 2.4 mM, 20 min, Trials 3-4): 20 min: 28% N2, and 20 min: 27% N2,
proportion of worms: sluggish N2 ([2]; 4.71 mM, 30 min, Trial 2): 30 min: 18%
proportion of worms: LOF ([2]; 4.71 mM, 1 hr, Trials 1-2): 1 hr: 100%

CN1CCOC(c2ccccc2)c2ccccc2C1 (centres unmarked) [Nefopam]
effect on Outward K+ currents [3]: blocked
proportion of worms: LOF ([1]; 3.3 mM, 20 min, Trial 3): rescue, 30%
proportion of worms: GOF ([1]; 3.3 mM, 20 min, Trial 4): rescue, 31% GOF.
proportion of worms: rescue ([1]; 3.3 mM, 20 min, Trials 3-4): 20 min: 70% and 20 min: 69%
proportion of worms: GOF ([1]; 3.3 mM, 40 min, Trial 3): rescue, 8% GOF,
proportion of worms: LOF ([1]; 3.3 mM, 40 min, Trial 3): 67% LOF.
proportion of worms: rescue ([1]; 3.3 mM, 40 min, Trials 3-4 (Trial 4: sluggish)): 40 min: 100% and 40 min: 25%
proportion of worms: rescue ([1]; 6.65 mM, 20 min, Trials 1-2): 20 min: 33% and 20 min: 90%
proportion of worms: rescue ([1]; 6.65 mM, 50 min, Trial 2): 50 min: 60%
proportion of worms: “rescue” ([2]; 3.3 mM, 20 min, Trials 3-4): 20 min: 15% and 20 min: 7%
proportion of worms: “rescue” ([2]; 6.65 mM, 20 min, Trials 1-2): 20 min: 9% and 20 min: 23%
proportion of worms: LOF ([2]; 6.65 mM, 50 min, Trials 1-2): 50 min: 100%

COc1cc2c3cc1Oc1c(OC)c(OC)cc4c1[C@@H](Cc1ccc(O)c(c1)Oc1ccc(cc1)C[C@@H]3N(C)CC2)N(C)CC4 [Berbamine dihydrochloride, Berbamine]
proportion of worms: LOF ([1]; 4.4 mM, 30 min, Trial 3): GOF, 25% LOF.
proportion of worms: rescue ([1]; 4.4 mM, 30 min, Trials 1-3): 30 min: 20% and 30 min: 70% and 30 min: 33%
proportion of worms: rescue ([1]; 4.4 mM, 1 hr, Trial 1): 1 hr: 50-60%
phenotype proportions at 1 hr compared with 30 min ([1]; 4.4 mM, 1 hr, Trials 2-3): 1 hr: no change.
response ([2]; 4.4 mM, 30 min, Trial 1): 30 min: No
proportion of worms: “rescue” ([2]; 4.4 mM, 30 min, Trials 2-3): 30 min: 70% and 30 min: 30%
phenotype proportions at 1 hr compared with 30 min ([2]; 4.4 mM, 1 hr, Trial 3): 1 hr: no change.

CCOC(=O)C1=C(COCCN)NC(C)=C(C(=O)OC)C1c1ccccc1Cl (centres unmarked) [Amlodipine Besylate, Amlodipine]
effect on Outward K+ currents [3]: blocked
proportion of worms: GOF ([1]; 1.25 mM, 30 mins, Trial 4): rescue, 36% GOF.
proportion of worms: rescue ([1]; 1.25 mM, 30 mins, Trial 4): 30 mins: 64%
proportion of worms: GOF ([1]; 1.25 mM, 1 hr, Trial 4): 27%
proportion of worms: LOF ([1]; 1.25 mM, 1 hr, Trial 4): 9%
proportion of worms: rescue ([1]; 1.25 mM, 1 hr, Trial 4): 1 hr: 64% rescue,
proportion of worms: “rescue” (slight but present) ([2]; 1.25 mM, 30 mins, Trial 4): 30 mins: 50%
proportion of worms: WT(N2) ([2]; 1.25 mM, 1 hr, Trial 4): 10% WT(N2).
proportion of worms: rescue ([2]; 1.25 mM, 1 hr, Trial 4): 1 hr: 90% rescue,
